Converted amounts (≈) assume the structure as drawn.
What was measured:
[1] = MTT cytotoxicity (cell viability) assay; format: cell-based, human; details: human, HepG2 cell line, 48 h, Figure 6
Experimental: (§1) Cells were treated with extracts/compound dissolved in DMSO with a final DMSO concentration of 0.05%. DMSO treated cells were used as control in all the experiments. Cell viability was determined by MTT assay as described by us previously. Briefly, HepG2 cells were treated with different concentrations of compounds for 48 h. […] Subsequently, 150 μL DMSO was added to dissolve formazan crystals and absorbance was measured at 490 nm in a microplate reader (Thermo Scientific, Waltham, MA, USA). The percentage of cell viability was calculated.

[2] = Antioxidant free radical scavenging activity using DPPH; format: biochemical; details: Figure 7 and text
Experimental: The potential of synthesized compounds to scavenge the free radicals were assessed by using diphenylpicrylhydrazyl (DPPH) as free radical [48].
These stock solutions were then subjected to prepare their dilutions up to 250 µg, 200 µg, 150 µg, 100 µg, 50 µg and 25 µg respectively. DPPH solution of 4% was prepared by mixing 0.004 g of DPPH in 100 ml methanol (commercial grade). Ascorbic acid was used as control and its solution was prepared by mixing 0.0017612 g into 100 ml of water having 100 µg concentration.
In test tubes 1 mL of sample from each diluted solution and 2 mL of DPPH solution was added. In the same way, 1 mL of the ascorbic acid was added along with 2 ml of DPPH as control and allowed to stand overnight.

HepG2 cells = assay: MTT cytotoxicity (cell viability) assay; format: cell-based, human; details: Homo sapiens, HepG2, read-out: IC50 as anti-cancer agents
Experimental: as §1

melting point	SMILES	IC50 at 48 h [1]	also measured
210 to 213 °C	CCOC(=O)C1=C(C)NC(=O)NC1c1cccc(F)c1 (stereo not drawn) [Compound 5b, ethyl 4-(3-fluorophenyl)-6-methyl-2oxo-1,2,3,4-tetrahydropyrimidine-5-carboxylate]		IC50 at 48 h ([1]; HepG2 cells): 11.3 µg/mL (≈ 40.5 µM)
	CCOC(=O)C1=C(C)NC(=O)NC1c1ccc(F)cc1 (stereo not drawn) [Compound 5c, ethyl 4-(4-fluorophenyl)-6-methyl-2oxo-1,2,3,4-tetrahydropyrimidine-5-carboxylate]	7.29 µg/mL (≈ 26.2 µM)	IC50 as anti-oxidant agents [2]: 6.261 µM
	CCOC(=O)C1=C(C)NC(=S)NC1c1ccccc1F (stereo not drawn) [Compound 5d, ethyl 4-(2-fluorophenyl)-6-methyl-2-thioxo-1,2,3,4-tetrahydropyrimidine-5-carboxylate]	25.5 µg/mL (≈ 86.7 µM)	
	CCOC(=O)C1=C(C)NC(=S)NC1c1cccc(F)c1 (stereo not drawn) [Compound 5e, ethyl 4-(3-fluorophenyl)-6-methyl-2-thioxo-1,2,3,4-tetrahydropyrimidine-5-carboxylate]	5.35 µg/mL (≈ 18.2 µM)	IC50 (HepG2 cells): 5.35 µg/mL (≈ 18.2 µM)
233 to 235 °C	CCOC(=O)C1=C(C)NC(=S)NC1c1ccc(F)cc1 (stereo not drawn) [Compound 5f, ethyl 4-(4-fluorophenyl)-6-methyl-2thioxo-1,2,3,4-tetrahydropyrimidine-5-carboxylate]		IC50 at 48 h ([1]; HepG2 cells): 18.7 µg/mL (≈ 63.5 µM)
	CCOC(=O)C1=C(C)NC(=S)NC1c1cccc(Cl)c1 (stereo not drawn) [Compound 5h, ethyl 4-(3-chlorophenyl)-6-methyl-2thioxo-1,2,3,4-tetrahydropyrimidine-5-carboxylate]	13 µg/mL (≈ 41.7 µM)	

SMILES	melting point	IC50 at 48 h [1]	also measured
CCOC(=O)C1=C(C)NC(=O)NC1c1ccccc1F (stereo not drawn) [Compound 5a, 4-(2-fluorophenyl)-6-methyl-2oxo-1,2,3,4-tetrahydropyrimidine-5-carboxylate]	230 to 233 °C	16 µg/mL (≈ 57.5 µM)	
